Experimental data: PubChem BioAssay (NCI)
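These data come from cells grown in 96-well plates and exposed to compound for 48 hours at five concentrations. GI50 marks 50% less growth. TGI: concentration producing complete growth inhibition.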

What was measured:
Experiment in all cases: inhibition of tumour cell growth, NCI panel, 48 h
A549 NSCLC = tested on: A549 NSCLC
SN12C renal = tested on: SN12C renal
HCT-15 colon = tested on: HCT-15 colon
NCI-H23 lung = tested on: NCI-H23 lung
PC-3 prostate = tested on: PC-3 prostate
LOX IMVI melanoma = tested on: LOX IMVI melanoma
TK-10 renal = tested on: TK-10 renal
OVCAR-8 ovarian = tested on: OVCAR-8 ovarian
RPMI-8226 leukemia = tested on: RPMI-8226 leukemia
MALME-3M melanoma = tested on: MALME-3M melanoma
UACC-257 melanoma = tested on: UACC-257 melanoma
UACC-62 melanoma = tested on: UACC-62 melanoma
EKVX NSCLC = tested on: EKVX NSCLC
CCRF-CEM leukemia = tested on: CCRF-CEM leukemia
SF-268 CNS = tested on: SF-268 CNS
NCI-H522 lung = tested on: NCI-H522 lung
UO-31 renal = tested on: UO-31 renal
M14 melanoma = tested on: M14 melanoma
IGROV1 ovarian = tested on: IGROV1 ovarian
HT29 colon = tested on: HT29 colon
SK-MEL-2 melanoma = tested on: SK-MEL-2 melanoma
HCT-116 colon = tested on: HCT-116 colon
HL-60(TB) leukemia = tested on: HL-60(TB) leukemia
MOLT-4 leukemia = tested on: MOLT-4 leukemia
HOP-62 NSCLC = tested on: HOP-62 NSCLC
U251 CNS = tested on: U251 CNS
SK-OV-3 ovarian = tested on: SK-OV-3 ovarian
SR leukemia = tested on: SR leukemia
NCI-H226 lung = tested on: NCI-H226 lung
SW-620 colon = tested on: SW-620 colon
OVCAR-4 ovarian = tested on: OVCAR-4 ovarian
OVCAR-5 ovarian = tested on: OVCAR-5 ovarian
ACHN renal = tested on: ACHN renal
DU-145 prostate = tested on: DU-145 prostate
MDA-MB-231 breast = tested on: MDA-MB-231 breast
SK-MEL-28 melanoma = tested on: SK-MEL-28 melanoma
K-562 leukemia = tested on: K-562 leukemia
KM12 colon = tested on: KM12 colon
SF-295 CNS = tested on: SF-295 CNS
NCI/ADR-RES ovarian = tested on: NCI/ADR-RES ovarian
RXF 393 renal = tested on: RXF 393 renal
786-0 renal = tested on: 786-0 renal
BT-549 breast = tested on: BT-549 breast
SNB-19 CNS = tested on: SNB-19 CNS
MCF7 breast = tested on: MCF7 breast
COLO 205 colon = tested on: COLO 205 colon
HOP-92 NSCLC = tested on: HOP-92 NSCLC
NCI-H460 lung = tested on: NCI-H460 lung
SK-MEL-5 melanoma = tested on: SK-MEL-5 melanoma
A498 renal = tested on: A498 renal
CAKI-1 renal = tested on: CAKI-1 renal
OVCAR-3 ovarian = tested on: OVCAR-3 ovarian
HCC-2998 colon = tested on: HCC-2998 colon
SNB-75 CNS = tested on: SNB-75 CNS
T-47D breast = tested on: T-47D breast
MDA-MB-435 = tested on: MDA-MB-435
SF-539 CNS = tested on: SF-539 CNS
HS 578T breast = tested on: HS 578T breast

## O=C1c2ccccc2-c2c1c1ccccc1c(=O)n2CCCNCCNCCCn1c2c(c3ccccc3c1=O)C(=O)c1ccccc1-2
A549 NSCLC
  GI50: 53.4 nM
  TGI: 1630 nM
SN12C renal
  TGI: 1810 nM
HCT-15 colon
  GI50: 83.1 nM
  TGI: 560 nM
NCI-H23 lung
  GI50: 508 nM
  TGI: 2570 nM
PC-3 prostate
  GI50: 92.9 nM
  TGI: 1840 nM
LOX IMVI melanoma
  GI50: < 10 nM
  TGI: 355 nM
TK-10 renal
  GI50: 279 nM
  TGI: 2080 nM
OVCAR-8 ovarian
  GI50: < 10 nM
  TGI: 1660 nM
RPMI-8226 leukemia
  GI50: < 10 nM
  TGI: 221 nM
MALME-3M melanoma
  GI50: 681 nM
  TGI: 2270 nM
UACC-257 melanoma
  GI50: 1240 nM
  TGI: 3470 nM
UACC-62 melanoma
  GI50: 174 nM
  TGI: 1880 nM
EKVX NSCLC
  GI50: 1230 nM
  TGI: 2880 nM
CCRF-CEM leukemia
  GI50: 14.2 nM
  TGI: 498 nM
SF-268 CNS
  GI50: 16.6 nM
  TGI: 2500 nM
NCI-H522 lung
  GI50: 151 nM
UO-31 renal
  GI50: 342 nM
M14 melanoma
  GI50: 288 nM
  TGI: 1930 nM
IGROV1 ovarian
  GI50: < 36.7 nM
  TGI: > 32900 nM
HT29 colon
  GI50: < 10 nM
SK-MEL-2 melanoma
  GI50: 2020 nM
HCT-116 colon
  GI50: < 10 nM
  TGI: 163 nM
HL-60(TB) leukemia
  GI50: 3510 nM
  TGI: > 100000 nM
MOLT-4 leukemia
  GI50: < 10 nM
  TGI: > 100000 nM
HOP-62 NSCLC
  GI50: < 17.2 nM
  TGI: 582 nM
U251 CNS
  GI50: 118 nM
  TGI: 2330 nM
SK-OV-3 ovarian
  GI50: 1330 nM
SR leukemia
  GI50: 50.9 nM
  TGI: > 100000 nM
NCI-H226 lung
  GI50: < 26.7 nM
  TGI: 1980 nM
SW-620 colon
  GI50: < 10 nM
  TGI: 258 nM
OVCAR-4 ovarian
  GI50: 694 nM
  TGI: 4560 nM
OVCAR-5 ovarian
  GI50: 1290 nM
  TGI: 2930 nM
ACHN renal
  GI50: < 10 nM
  TGI: 1310 nM
DU-145 prostate
  TGI: 1070 nM
MDA-MB-231 breast
  GI50: < 38.1 nM
  TGI: 437 nM
SK-MEL-28 melanoma
  GI50: 1090 nM
  TGI: > 100000 nM
K-562 leukemia
  GI50: < 33.5 nM
  TGI: > 100000 nM
KM12 colon
  GI50: < 40 nM
  TGI: 415 nM
SF-295 CNS
  GI50: 78.2 nM
  TGI: 2320 nM
NCI/ADR-RES ovarian
  GI50: 358 nM
  TGI: 1750 nM

## CO[C@H]1C(=O)[C@]2(C)[C@@H](OC)C[C@H]3OC[C@@]3(OC(C)=O)[C@H]2[C@H](OC(=O)c2ccccc2)[C@]2(O)C[C@H](OC(=O)[C@H](O)[C@@H](NC(=O)OC(C)(C)C)c3ccccc3)C(C)=C1C2(C)C
RXF 393 renal
  GI50: < 10 nM
  TGI: 10700 nM
786-0 renal
  GI50: < 10 nM
  TGI: 87300 nM
A549 NSCLC
  GI50: < 10 nM
  TGI: > 64900 nM
SN12C renal
  GI50: < 10 nM
  TGI: > 100000 nM
HCT-15 colon
  GI50: < 10 nM
  TGI: 56000 nM
BT-549 breast
  GI50: < 10 nM
  TGI: 26800 nM
SNB-19 CNS
  GI50: < 13.4 nM
  TGI: > 100000 nM
NCI-H23 lung
  GI50: < 10 nM
  TGI: > 100000 nM
PC-3 prostate
  GI50: < 10 nM
  TGI: > 77800 nM
LOX IMVI melanoma
  GI50: < 10 nM
  TGI: 49700 nM
MCF7 breast
  GI50: < 10 nM
  TGI: 20500 nM
TK-10 renal
  GI50: < 10 nM
  TGI: 31300 nM
OVCAR-8 ovarian
  GI50: < 10 nM
  TGI: > 100000 nM
RPMI-8226 leukemia
  GI50: < 10 nM
  TGI: > 38000 nM
COLO 205 colon
  GI50: < 10 nM
  TGI: 10.3 nM
UACC-257 melanoma
  TGI: > 63000 nM
HOP-92 NSCLC
  TGI: 33000 nM
UACC-62 melanoma
  GI50: < 14.7 nM
  TGI: 56800 nM
EKVX NSCLC
  GI50: 425 nM
  TGI: > 100000 nM
CCRF-CEM leukemia
  GI50: < 10 nM
  TGI: 42300 nM
SF-268 CNS
  GI50: < 10 nM
  TGI: 68600 nM
UO-31 renal
  GI50: < 10 nM
  TGI: 54300 nM
NCI-H460 lung
  GI50: < 10 nM
  TGI: 13000 nM
M14 melanoma
  GI50: < 10 nM
  TGI: 17800 nM
SK-MEL-5 melanoma
  GI50: < 10 nM
  TGI: 17300 nM
A498 renal
  GI50: < 10 nM
  TGI: 10100 nM
IGROV1 ovarian
  GI50: < 10 nM
  TGI: > 100000 nM
HT29 colon
  GI50: < 10 nM
  TGI: 11500 nM
CAKI-1 renal
  TGI: > 52900 nM
SK-MEL-2 melanoma
  GI50: < 10 nM
  TGI: 973 nM
HCT-116 colon
  GI50: < 10 nM
  TGI: 21200 nM
HL-60(TB) leukemia
  GI50: < 10 nM
  TGI: < 10 nM
MOLT-4 leukemia
  GI50: < 11.4 nM
  TGI: 27800 nM
HOP-62 NSCLC
  GI50: < 10 nM
  TGI: > 80400 nM
U251 CNS
  GI50: < 10 nM
  TGI: 23800 nM
SK-OV-3 ovarian
  GI50: < 10 nM
  TGI: 35200 nM
SR leukemia
  GI50: < 10 nM
NCI-H226 lung
  GI50: 2090 nM
  TGI: 39700 nM
SW-620 colon
  GI50: < 10 nM
  TGI: > 100000 nM
OVCAR-3 ovarian
  GI50: < 10 nM
  TGI: < 10 nM
OVCAR-4 ovarian
  TGI: > 77100 nM
OVCAR-5 ovarian
  GI50: < 10 nM
  TGI: 41500 nM
HCC-2998 colon
  GI50: < 10 nM
  TGI: < 16.8 nM
ACHN renal
  GI50: 12600 nM
  TGI: > 100000 nM
DU-145 prostate
  GI50: < 10 nM
  TGI: < 10 nM
SNB-75 CNS
  GI50: < 10 nM
  TGI: < 10 nM
MDA-MB-231 breast
  GI50: < 18.3 nM
  TGI: > 53600 nM
SK-MEL-28 melanoma
  TGI: 39800 nM
K-562 leukemia
  GI50: < 10 nM
  TGI: > 100000 nM
KM12 colon
  GI50: < 10 nM
  TGI: 22400 nM
SF-295 CNS
  GI50: < 10 nM
  TGI: 23900 nM
NCI/ADR-RES ovarian
  GI50: 26.9 nM
  TGI: 1240 nM
T-47D breast
  GI50: < 10 nM
  TGI: > 100000 nM

## COc1cc2c(c3c1c(=O)c1ccccc1n3C)C=C([N+](=O)[O-])C(C)(C)O2
MDA-MB-435
  TGI: 577 nM
RXF 393 renal
  TGI: 328 nM
786-0 renal
  TGI: > 100000 nM
SF-539 CNS
  TGI: > 100000 nM
A549 NSCLC
  TGI: > 100000 nM
SN12C renal
  TGI: > 100000 nM
HCT-15 colon
  TGI: > 100000 nM
SNB-19 CNS
  TGI: > 100000 nM
NCI-H23 lung
  TGI: > 100000 nM
PC-3 prostate
  TGI: > 100000 nM
LOX IMVI melanoma
  TGI: > 100000 nM
MCF7 breast
  TGI: > 100000 nM
TK-10 renal
  TGI: > 100000 nM
OVCAR-8 ovarian
  TGI: > 100000 nM
RPMI-8226 leukemia
  TGI: > 31600 nM
UACC-257 melanoma
  TGI: > 48000 nM
HOP-92 NSCLC
  TGI: > 100000 nM
UACC-62 melanoma
  TGI: > 100000 nM
EKVX NSCLC
  TGI: > 100000 nM
CCRF-CEM leukemia
  TGI: > 100000 nM
SF-268 CNS
  TGI: > 100000 nM
NCI-H522 lung
  TGI: > 34400 nM
UO-31 renal
  TGI: > 100000 nM
NCI-H460 lung
  TGI: 108 nM
SK-MEL-5 melanoma
  TGI: 56.7 nM
A498 renal
  TGI: 12500 nM
IGROV1 ovarian
  TGI: > 100000 nM
HT29 colon
  TGI: > 100000 nM
CAKI-1 renal
  TGI: > 100000 nM
HCT-116 colon
  TGI: > 100000 nM
HL-60(TB) leukemia
  TGI: > 100000 nM
MOLT-4 leukemia
  TGI: > 100000 nM
HOP-62 NSCLC
  TGI: > 100000 nM
U251 CNS
  TGI: > 100000 nM
SK-OV-3 ovarian
  TGI: > 100000 nM
SR leukemia
  TGI: > 100000 nM
NCI-H226 lung
  TGI: > 100000 nM
OVCAR-3 ovarian
  TGI: > 100000 nM
HS 578T breast
  TGI: > 100000 nM
OVCAR-4 ovarian
  TGI: > 100000 nM
OVCAR-5 ovarian
  TGI: > 100000 nM
ACHN renal
  TGI: 464 nM
DU-145 prostate
  TGI: > 100000 nM
SNB-75 CNS
  TGI: > 100000 nM
MDA-MB-231 breast
  TGI: > 31600 nM
K-562 leukemia
  TGI: > 100000 nM
KM12 colon
  TGI: > 100000 nM
SF-295 CNS
  TGI: > 100000 nM
NCI/ADR-RES ovarian
  TGI: > 100000 nM
T-47D breast
  TGI: > 100000 nM
